Measurements: patent US7132513B2, “Bifunctional chelating agent” (European Community, priority 2000, dated 2006)

What was measured:
[1] = complexation properties with ^225Ac; type: physicochemical; conditions: compared with non-functionalised chelating agents EDTA, DTPA, DOTA, PEPA, HEHA, EDTMP
Procedure: (§1) Different non-functionalised chelating agents (commercially available or readily synthesised in the laboratory) bearing aminocarboxylate groups (EDTA, DTPA, DOTA, PEPA, and HEHA) or aminophosphonate groups (EDTMP) were tested for their complexation properties with ^225Ac and ^213Bi. […] Polyaza polycarboxylic macrocycles are known to form thermodynamically stable complexes with large metal ions such as actinides and lanthanides.

[2] = complexation properties with ^213Bi; type: physicochemical; conditions: non-functionalised chelating agents tested
Procedure: as §1

^225Ac complexation [1]: best candidate
chelation of ^213Bi [2]: good chelating agent
SMILES: O=C(O)CN1CCN(CC(=O)O)CCN(CC(=O)O)CCN(CC(=O)O)CCN(CC(=O)O)CCN(CC(=O)O)CC1 [HEHA, 1,4,7,10,13,16-hexacarboxylmethyl-1,4,7,10,13,16-hexaazacyclooctadecane]
